According to ChEMBL document CHEMBL1671673, “In vitro activity of colistin (polymyxin E) against 3,480 isolates of gram-negative bacilli obtained from patients in Canadian hospitals in the CANWARD study, 2007-2008” (Antimicrob Agents Chemother, 2009):

Tests used:
Assay type in all cases: functional, organism-based
Klebsiella oxytoca [1] = assay: Antibacterial activity against Klebsiella oxytoca assessed as susceptible isolates at minimum inhibitory concentration of 4 ug/ml by CLSI broth microdilution method; design: scale not given: the % may be the effect or the level left
Pseudomonas aeruginosa [2] = assay: Antibacterial activity against Meropenem-resistant Pseudomonas aeruginosa assessed as susceptible isolates at minimum inhibitory concentration of 0.5 ug/ml by CLSI broth microdilution method; design: scale not given: the % may be the effect or the level left
Pseudomonas aeruginosa [3] = assay: Antibacterial activity against Cefepime-resistant Pseudomonas aeruginosa assessed as susceptible isolates at minimum inhibitory concentration of 0.5 ug/ml by CLSI broth microdilution method; design: scale not given: the % may be the effect or the level left
Pseudomonas aeruginosa [4] = assay: Antibacterial activity against Pseudomonas aeruginosa assessed as intermediate isolates at 4 ug/ml by CLSI broth microdilution method
Serratia marcescens = assay: Antibacterial activity against Serratia marcescens assessed as susceptible isolates at minimum inhibitory concentration of <=0.06 ug/ml by CLSI broth microdilution method; design: scale not given: the % may be the effect or the level left
Pseudomonas aeruginosa [5] = assay: Antibacterial activity against Gentamicin-resistant Pseudomonas aeruginosa assessed as susceptible isolates at minimum inhibitory concentration of 0.5 ug/ml by CLSI broth microdilution method; design: scale not given: the % may be the effect or the level left
Pseudomonas aeruginosa [6] = assay: Antibacterial activity against Ciprofloxacin-resistant Pseudomonas aeruginosa assessed as susceptible isolates at minimum inhibitory concentration of 0.5 ug/ml by CLSI broth microdilution method; design: scale not given: the % may be the effect or the level left
Escherichia coli [7] = assay: Antibacterial activity against ESBL-producing Escherichia coli assessed as susceptible isolates at minimum inhibitory concentration of 0.5 ug/ml by CLSI broth microdilution method; design: scale not given: the % may be the effect or the level left
Klebsiella aerogenes [8] = assay: Antibacterial activity against Enterobacter aerogenes assessed as susceptible isolates at minimum inhibitory concentration of 0.12 ug/ml by CLSI broth microdilution method; design: scale not given: the % may be the effect or the level left
Acinetobacter baumannii [9] = assay: Antibacterial activity against Acinetobacter baumannii assessed as susceptible isolates at minimum inhibitory concentration of 1 ug/ml by CLSI broth microdilution method; design: scale not given: the % may be the effect or the level left
Pseudomonas aeruginosa [10] = assay: Antibacterial activity against Cefepime-resistant Pseudomonas aeruginosa assessed as susceptible isolates at minimum inhibitory concentration of 2 ug/ml by CLSI broth microdilution method; design: scale not given: the % may be the effect or the level left
Pseudomonas aeruginosa [11] = assay: Antibacterial activity against MDR4 Pseudomonas aeruginosa assessed as susceptible isolates at minimum inhibitory concentration of 1 ug/ml by CLSI broth microdilution method; design: scale not given: the % may be the effect or the level left
Pseudomonas aeruginosa [12] = assay: Antibacterial activity against tazobactam-resistant Pseudomonas aeruginosa assessed as susceptible isolates at minimum inhibitory concentration of 4 ug/ml by CLSI broth microdilution method; design: scale not given: the % may be the effect or the level left
Pseudomonas aeruginosa [13] = assay: Antibacterial activity against Gentamicin-resistant Pseudomonas aeruginosa assessed as susceptible isolates at minimum inhibitory concentration of 2 ug/ml by CLSI broth microdilution method; design: scale not given: the % may be the effect or the level left
Enterobacter cloacae [14] = assay: Antibacterial activity against Enterobacter cloacae assessed as susceptible isolates at minimum inhibitory concentration of 16 ug/ml by CLSI broth microdilution method; design: scale not given: the % may be the effect or the level left
Pseudomonas aeruginosa [15] = assay: Antibacterial activity against MDR Pseudomonas aeruginosa assessed as susceptible isolates at minimum inhibitory concentration of 2 ug/ml by CLSI broth microdilution method; design: scale not given: the % may be the effect or the level left
Klebsiella aerogenes [16] = assay: Antibacterial activity against Enterobacter aerogenes assessed as susceptible isolates at minimum inhibitory concentration of 0.25 ug/ml by CLSI broth microdilution method; design: scale not given: the % may be the effect or the level left
Klebsiella oxytoca [17] = assay: Antibacterial activity against Klebsiella oxytoca assessed as susceptible isolates at minimum inhibitory concentration of 0.5 ug/ml by CLSI broth microdilution method; design: scale not given: the % may be the effect or the level left
Proteus mirabilis [18] = assay: Antibacterial activity against Proteus mirabilis assessed as susceptible isolates at minimum inhibitory concentration of 8 ug/ml by CLSI broth microdilution method; design: scale not given: the % may be the effect or the level left
Pseudomonas aeruginosa [19] = assay: Antibacterial activity against MDR4 Pseudomonas aeruginosa assessed as susceptible isolates at minimum inhibitory concentration of 2 ug/ml by CLSI broth microdilution method; design: scale not given: the % may be the effect or the level left
Acinetobacter baumannii [20] = assay: Antibacterial activity against Acinetobacter baumannii assessed as susceptible isolates at minimum inhibitory concentration of 2 ug/ml by CLSI broth microdilution method; design: scale not given: the % may be the effect or the level left
Pseudomonas aeruginosa [21] = assay: Antibacterial activity against Cefepime-resistant Pseudomonas aeruginosa assessed as susceptible isolates at minimum inhibitory concentration of 1 ug/ml by CLSI broth microdilution method; design: scale not given: the % may be the effect or the level left
Klebsiella oxytoca [22] = assay: Antibacterial activity against Klebsiella oxytoca assessed as susceptible isolates at minimum inhibitory concentration of 2 ug/ml by CLSI broth microdilution method; design: scale not given: the % may be the effect or the level left
Escherichia coli [23] = assay: Antibacterial activity against ESBL-producing Escherichia coli assessed as susceptible isolates at minimum inhibitory concentration of 0.12 ug/ml by CLSI broth microdilution method; design: scale not given: the % may be the effect or the level left
Pseudomonas aeruginosa [24] = assay: Antibacterial activity against tazobactam-resistant Pseudomonas aeruginosa assessed as susceptible isolates at minimum inhibitory concentration of 1 ug/ml by CLSI broth microdilution method; design: scale not given: the % may be the effect or the level left
Klebsiella oxytoca [25] = assay: Antibacterial activity against Klebsiella oxytoca assessed as susceptible isolates at minimum inhibitory concentration of >16 ug/ml by CLSI broth microdilution method; design: scale not given: the % may be the effect or the level left
Pseudomonas aeruginosa [26] = assay: Antibacterial activity against Pseudomonas aeruginosa assessed as susceptible isolates at minimum inhibitory concentration of <=2 ug/ml by CLSI broth microdilution method; design: scale not given: the % may be the effect or the level left
Enterobacter cloacae [27] = assay: Antibacterial activity against Enterobacter cloacae assessed as susceptible isolates at minimum inhibitory concentration of 2 ug/ml by CLSI broth microdilution method; design: scale not given: the % may be the effect or the level left
Pseudomonas aeruginosa [28] = assay: Antibacterial activity against Pseudomonas aeruginosa assessed as susceptible isolates at minimum inhibitory concentration of <=0.06 ug/ml by CLSI broth microdilution method; design: scale not given: the % may be the effect or the level left
Klebsiella pneumoniae [29] = assay: Antibacterial activity against ESBL-producing Klebsiella pneumoniae assessed as susceptible isolates at minimum inhibitory concentration of 4 ug/ml by CLSI broth microdilution method; design: scale not given: the % may be the effect or the level left
Pseudomonas aeruginosa [30] = assay: Antibacterial activity against Piperacillin-resistant Pseudomonas aeruginosa assessed as susceptible isolates at minimum inhibitory concentration of 2 ug/ml by CLSI broth microdilution method; design: scale not given: the % may be the effect or the level left
Pseudomonas aeruginosa [31] = assay: Antibacterial activity against Pseudomonas aeruginosa assessed as susceptible isolates at minimum inhibitory concentration of 4 ug/ml by CLSI broth microdilution method; design: scale not given: the % may be the effect or the level left
Pseudomonas aeruginosa [32] = assay: Antibacterial activity against Levofloxacin-resistant Pseudomonas aeruginosa assessed as susceptible isolates at minimum inhibitory concentration of 1 ug/ml by CLSI broth microdilution method; design: scale not given: the % may be the effect or the level left
Proteus mirabilis [33] = assay: Antibacterial activity against Proteus mirabilis assessed as susceptible isolates at minimum inhibitory concentration of 16 ug/ml by CLSI broth microdilution method; design: scale not given: the % may be the effect or the level left
Acinetobacter baumannii [34] = assay: Antibacterial activity against Acinetobacter baumannii assessed as susceptible isolates at minimum inhibitory concentration of 16 ug/ml by CLSI broth microdilution method; design: scale not given: the % may be the effect or the level left
Pseudomonas aeruginosa [35] = assay: Antibacterial activity against Piperacillin-resistant Pseudomonas aeruginosa assessed as susceptible isolates at minimum inhibitory concentration of 0.5 ug/ml by CLSI broth microdilution method; design: scale not given: the % may be the effect or the level left
Pseudomonas aeruginosa [36] = assay: Antibacterial activity against Amikacin-resistant Pseudomonas aeruginosa assessed as susceptible isolates at minimum inhibitory concentration of >16 ug/ml by CLSI broth microdilution method; design: scale not given: the % may be the effect or the level left
Escherichia coli [37] = assay: Antibacterial activity against ESBL-producing Escherichia coli assessed as susceptible isolates at minimum inhibitory concentration of 4 ug/ml by CLSI broth microdilution method; design: scale not given: the % may be the effect or the level left
Escherichia coli [38] = assay: Antibacterial activity against ESBL-producing Escherichia coli assessed as susceptible isolates at minimum inhibitory concentration of 2 ug/ml by CLSI broth microdilution method; design: scale not given: the % may be the effect or the level left
Klebsiella pneumoniae [39] = assay: Antibacterial activity against ESBL-producing Klebsiella pneumoniae assessed as susceptible isolates at minimum inhibitory concentration of 16 ug/ml by CLSI broth microdilution method; design: scale not given: the % may be the effect or the level left

Sequence: COLISTIN
- Activity (Klebsiella oxytoca [1]): 97.2%
- Activity (Pseudomonas aeruginosa [2]): 3.5%
- Activity (Pseudomonas aeruginosa [3]): 6.8%
- Activity (Pseudomonas aeruginosa [4]): 7.3%
- Activity (Serratia marcescens): 0%
- Activity (Pseudomonas aeruginosa [5]): 3.8%
- Activity (Pseudomonas aeruginosa [6]): 4.1%
- Activity (Escherichia coli [7]): 82.4%
- Activity (Klebsiella aerogenes [8]): 0%
- Activity (Acinetobacter baumannii [9]): 74.2%
- Activity (Pseudomonas aeruginosa [10]): 97.3%
- Activity (Pseudomonas aeruginosa [11]): 42.3%
- Activity (Pseudomonas aeruginosa [12]): 100%
- Activity (Pseudomonas aeruginosa [13]): 99%
- Activity (Enterobacter cloacae [14]): 88.2%
- Activity (Pseudomonas aeruginosa [15]): 100%
- Activity (Klebsiella aerogenes [16]): 18.9%
- Activity (Klebsiella oxytoca [17]): 74.1%
- Activity (Proteus mirabilis [18]): 0%
- Activity (Pseudomonas aeruginosa [19]): 100%
- Activity (Acinetobacter baumannii [20]): 93.5%
- Activity (Pseudomonas aeruginosa [21]): 39.7%
- Activity (Klebsiella oxytoca [22]): 95.4%
- Activity (Escherichia coli [23]): 1.2%
- Activity (Pseudomonas aeruginosa [24]): 37.5%
- Activity (Klebsiella oxytoca [25]): 100%
- Activity (Pseudomonas aeruginosa [26]): 91.6%
- Activity (Enterobacter cloacae [27]): 83.9%
- Activity (Pseudomonas aeruginosa [28]): 0%
- Activity (Klebsiella pneumoniae [29]): 97.7%
- Activity (Pseudomonas aeruginosa [30]): 92.9%
- Activity (Pseudomonas aeruginosa [31]): 98.9%
- Activity (Pseudomonas aeruginosa [32]): 30.7%
- Activity (Proteus mirabilis [33]): 0.8%
- Activity (Acinetobacter baumannii [34]): 96.8%
- Activity (Pseudomonas aeruginosa [35]): 1.8%
- Activity (Pseudomonas aeruginosa [36]): 100%
- Activity (Escherichia coli [37]): 99.5%
- Activity (Escherichia coli [38]): 99.4%
- Activity (Klebsiella pneumoniae [39]): 98.1%
